# Reference: DBAASP
# Legend:
# Test in all cases: ≥ marks a high value that may be exact or a test limit, other limits are often not marked, values filed in µg/mL are converted to µM
# [1] = system: Staphylococcus epidermidis 154
# [2] = system: Staphylococcus epidermidis ATCC 12228
# Escherichia coli AB94012 = system: Escherichia coli AB94012
# [3] = system: Escherichia coli ATCC 25922
# [4] = system: Pseudomonas aeruginosa ATCC 27853
# [5] = system: Pseudomonas aeruginosa ATCC 9027
# [6] = system: Staphylococcus aureus AB6538
# [7] = system: Candida albicans ATCC 36232
# [8] = system: Escherichia coli ATCC 2592
# [9] = system: Micrococcus luteus ATCC 9341
# [10] = system: Proteus vulgaris ATCC 6380
# [11] = system: Shigella flexneri ATCC 203
# [12] = system: Staphylococcus aureus ATCC 6538
# Staphylococcus aureus = system: Staphylococcus aureus
# Citrobacter freundii = system: Citrobacter freundii
# Klebsiella pneumoniae = system: Klebsiella pneumoniae
# [13] = system: Salmonella enterica subsp. enterica serovar Paratyphi A
# [14] = system: Staphylococcus haemolyticus
# [15] = system: Escherichia coli NBRC 14237
# [16] = system: Saccharomyces cerevisiae NBRC 10217
# [17] = system: Staphylococcus aureus NBRC 12732
structure (smiles),measurement,setting,value
CC(C)C[C@H](NC(=O)[C@H](Cc1ccc(O)cc1)NC(=O)[C@H](Cc1ccc(O)cc1)NC(=O)CNC(=O)[C@H](Cc1c[nH]c2ccccc12)NC(=O)[C@H](CO)NC(=O)[C@H](CO)NC(=O)[C@H](Cc1c[nH]c2ccccc12)NC(=O)[C@H](CC(C)C)NC(=O)[C@H](CCCCN)NC(=O)[C@@H](NC(=O)[C@@H](NC(=O)[C@H](CC(C)C)NC(=O)[C@@H](N)CC(=O)O)[C@@H](C)O)[C@@H](C)O)C(=O)NCC(=O)N[C@@H](CCCCN)C(=O)N[C@@H](CCCCN)C(=O)N[C@@H](C)C(=O)N[C@@H](CCCN=C(N)N)C(=O)N[C@@H](Cc1c[nH]c2ccccc12)C(=O)N[C@@H](CC(N)=O)C(=O)N[C@@H](CC(C)C)C(=O)N[C@@H](CCCCN)C(=O)N[C@@H](Cc1cnc[nH]1)C(=O)N1CCC[C@H]1C(=O)N[C@@H](Cc1ccc(O)cc1)C(=O)N[C@H](C(=O)N[C@@H](CCC(N)=O)C(=O)N[C@@H](Cc1ccccc1)C(=O)O)C(C)C [DLTTKLWSSWGYYLGKKARWNLKHPYVQF],MIC,[1],25 µM
same,MIC,[2],12.5 µM
CC[C@H](C)[C@H](NC(=O)[C@H](CCCCN)NC(=O)[C@@H]1CCCN1C(=O)[C@H](CC(C)C)NC(=O)[C@@H](NC(=O)[C@H](CCCCN)NC(=O)[C@H](CCCCN)NC(=O)[C@H](CC(C)C)NC(=O)[C@@H](NC(=O)[C@H](CCCCN)NC(=O)[C@H](CCCCN)NC(=O)[C@H](CC(C)C)NC(=O)[C@H](CC(C)C)NC(=O)[C@H](CCCCN)NC(=O)[C@H](CC(C)C)NC(=O)[C@@H](N)Cc1ccccc1)C(C)C)C(C)C)C(=O)N[C@@H](Cc1ccccc1)C(=O)N[C@@H](CCCCN)C(N)=O [FLKLLKKVLKKVLPKIFK],MIC,Escherichia coli AB94012,2.86 µM
same,MIC,[3],2.86 µM
same,MIC,[4],5.72 µM
same,MIC,[5],5.72 µM
same,MIC,[6],2.86 µM
CC(C)[C@H](NC(=O)[C@H](CCCCN)NC(=O)[C@@H](N)CCCCN)C(=O)N[C@H](C(=O)N[C@@H](Cc1ccccc1)C(=O)N[C@@H](CCCCN)C(=O)N[C@@H](Cc1ccccc1)C(=O)N[C@@H](CCCCN)C(=O)N[C@@H](Cc1ccccc1)C(=O)N[C@@H](CCCCN)C(N)=O)C(C)C [KKVVFKFKFK],MIC,[7],0.601 µM
same,MIC,[8],2.4 µM
same,MIC,[9],0.601 µM
same,MIC,[10],≥ 77 µM
same,MIC,[5],2.4 µM
same,MIC,[11],2.4 µM
same,MIC,[12],2.4 µM
same,MIC,Staphylococcus aureus,4.81 µM
same,MIC,[2],0.601 µM
CC(C)C[C@H](NC(=O)[C@H](CCCCN)NC(=O)[C@H](CC(C)C)NC(=O)[C@H](CCCCN)NC(=O)[C@H](CS)NC(=O)[C@H](CC(C)C)NC(=O)[C@H](Cc1c[nH]c2ccccc12)NC(=O)CNC(=O)[C@H](CCCCN)NC(=O)[C@H](CS)NC(=O)[C@@H]1CCCN1C(=O)[C@@H](N)CCCCN)C(=O)N[C@@H](CCCN=C(N)N)C(=O)O [KPCKGWLCKLKLR],MIC,Citrobacter freundii,7.63 µM
same,MIC,Klebsiella pneumoniae,3.81 µM
same,MIC,[13],3.81 µM
same,MIC,[14],1.91 µM
CC(C)C[C@H](NC(=O)[C@H](CO)NC(=O)[C@H](CO)NC(=O)[C@H](CCCN=C(N)N)NC(=O)[C@H](CCCN=C(N)N)NC(=O)[C@H](CCCN=C(N)N)NC(=O)[C@H](CO)NC(=O)[C@H](CC(C)C)NC(=O)[C@H](Cc1c[nH]c2ccccc12)NC(=O)[C@@H](N)Cc1c[nH]c2ccccc12)C(=O)N[C@@H](Cc1ccccc1)C(=O)N[C@@H](Cc1ccc(O)cc1)C(=O)N[C@@H](Cc1c[nH]c2ccccc12)C(=O)N[C@@H](CCCN=C(N)N)C(=O)O [WWLSRRRSSLFYWR],MIC,[15],3.12 µM
same,MIC,[16],12.5 µM
same,MIC,[17],3.12 µM
